Test results published in the RepoRT retention time repository (doi:10.1016/j.foodchem.2021.129757).

What was measured:
Settings in all cases: stereoisomer not certain
[1] = RP, 100 × 0.5 mm, 2.7 µm, 45 °C, 0.015 mL/min, estimated dead time 0.83 min; A: water + 0.9% formic acid; B: acetonitrile + 0.9% formic acid; gradient (min/%B) 0/1 0.5/1 4/95 4.5/1 5/1
[2] = RP, 50 × 0.5 mm, 2.7 µm, 35 °C, 0.01 mL/min, estimated dead time 0.62 min; A: water + 0.1% formic acid, pH 3; B: acetonitrile + 0.1% formic acid, pH 3; gradient (min/%B) 0/5 12/95 14/95 16/5
[3] = RP, 150 × 2.1 mm, 2.6 µm, 40 °C, 0.35 mL/min, estimated dead time 0.94 min; A: water + 0.1% formic acid, pH 3; B: acetonitrile + 0.1% formic acid, pH 3; gradient (min/%B) 0/0 1/0 12.5/100 14/100 14.2/0 15/0
[4] = RP, 150 × 2.1 mm, 2.6 µm, 40 °C, 0.35 mL/min, estimated dead time 0.94 min; A: water + 0.1% formic acid, pH 3; B: acetonitrile + 0.1% formic acid, pH 3; gradient (min/%B) 0/0 1/5 7/45 8.5/80 10.5/80 11/5 12/5
[5] = RP, Phenomenex Synergi Hydro-RP, 150 × 2 mm, 4 µm, 30 °C, 0.5 mL/min, estimated dead time 0.6 min; A: water + 0.1% formic acid, pH 3; B: acetonitrile + 0.1% formic acid, pH 3; gradient (min/%B) 0/5 1/5 35/45 40/100 45/100
[6] = RP, Phenomenex Luna Omega Polar C18, 100 × 2.1 mm, 1.6 µm, 40 °C, 0.5 mL/min, estimated dead time 0.44 min; A: water + 0.5% formic acid; B: acetonitrile + 0.5% formic acid; gradient (min/%B) 0/5 3/50 3.1/100 5/100 5.1/5 7/5
[7] = RP, Phenomenex Luna C18, 150 × 4.6 mm, 3 µm, 25 °C, 0.5 mL/min, estimated dead time 3.2 min; A: water + 0.1% formic acid, pH 3; B: acetonitrile + 0.1% formic acid, pH 3; gradient (min/%B) 0/0 30/30 35/40 50/80 52/80 60/0 65/0
[8] = RP, Phenomenex Luna Omega Polar C18, 100 × 2.1 mm, 1.6 µm, 40 °C, 0.5 mL/min, estimated dead time 0.44 min; A: water + 0.1% formic acid + 10 mM ammonium formate; B: acetonitrile; gradient (min/%B) 0/5 8/20 10/100 12/100 12.1/5 14/5
[9] = RP, Waters ACQUITY UPLC HSS T3, 100 × 2.1 mm, 1.8 µm, 30 °C, 0.4 mL/min, estimated dead time 0.55 min; A: water + 0.1% formic acid, pH 3; B: acetonitrile + 0.1% formic acid, pH 3; gradient (min/%B) 0/0 2/0 15/100 22/100 22.1/0 26/0
[10] = RP, Agilent ZORBAX Eclipse XDB-C18, 100 × 2.1 mm, 1.8 µm, 50 °C, 0.4 mL/min, estimated dead time 0.55 min; A: water + 0.1% formic acid, pH 3; B: methanol + 0.1% formic acid, pH 3; gradient (min/%B) 0/2 10/100 14.5/100 14.51/2 16.5/2
[11] = RP, Waters ACQUITY UPLC BEH C18, 100 × 2.1 mm, 1.7 µm, 65 °C, 0.4 mL/min, estimated dead time 0.55 min; A: water + 0.1% formic acid, pH 3; B: 80% acetonitrile + 20% acetone + 0.1% formic acid, pH 3; gradient (min/%B) 0/0 5/100 5.5/0 6/0
[12] = RP, Waters ACQUITY UPLC BEH Shield RP18, 100 × 2.1 mm, 1.7 µm, 30 °C, 0.6 mL/min, estimated dead time 0.37 min; A: water + 0.1% formic acid, pH 3; B: acetonitrile + 0.1% formic acid, pH 3; gradient (min/%B) 0/0 2/0 7/10 22/95 22.1/0 26/0
[13] = RP, Waters ACQUITY UPLC BEH Shield RP18, 150 × 2.1 mm, 1.7 µm, 40 °C, 0.4 mL/min, estimated dead time 0.83 min; A: water + 0.1% formic acid, pH 3; B: acetonitrile + 0.1% formic acid, pH 3; gradient (min/%B) 0/0 30/50 31/100 37/100 37.1/0
[14] = RP, Agilent ZORBAX RRHD Eclipse Plus C18, 50 × 2.1 mm, 1.8 µm, 30 °C, 0.4 mL/min, estimated dead time 0.28 min; A: water + 0.1% formic acid, pH 3; B: acetonitrile + 0.1% formic acid, pH 3; gradient (min/%B) 0/1 5/10 8/25 9.1/99 10/99 12/99
[15] = RP, Agilent InfinityLab Poroshell 120 EC-C18, 100 × 3 mm, 2.7 µm, 25 °C, 0.4 mL/min, estimated dead time 1.1 min; A: water + 0.1% formic acid, pH 3; B: acetonitrile + 0.1% formic acid, pH 3; gradient (min/%B) 0/5 10/25 20/40 24/90 25/90 26/5 30/5
[16] = RP, Phenomenex Synergi Hydro-RP, 250 × 2 mm, 4 µm, 25 °C, 0.2 mL/min, estimated dead time 2.5 min; A: water + 0.1% formic acid, pH 3; B: acetonitrile + 0.1% formic acid, pH 3; gradient (min/%B) 0/0.5 7/0.5 12/12.5 25/16.3 47/35 48/65 50/65 50.1/0.5
[17] = RP, Waters Atlantis T3, 100 × 2.1 mm, 3 µm, 40 °C, 0.3 mL/min, estimated dead time 0.73 min; A: water + 0.1% trifluoroacetic acid, pH 2; B: acetonitrile + 0.1% trifluoroacetic acid, pH 2; gradient (min/%B) 0/10 1/10 6/40 7/50 8/50 14/70 16/80 20/10 25/10
[18] = RP, Agilent ZORBAX RRHD Eclipse Plus C18, 50 × 2.1 mm, 1.8 µm, 30 °C, 0.4 mL/min, estimated dead time 0.28 min; A: water + 0.1% formic acid, pH 3; B: acetonitrile + 0.1% formic acid, pH 3; gradient (min/%B) 0/1 5/10 8/25 9.1/99 10/99 12/1

Row | SMILES | LC retention time [1] [min] | LC retention time [2] [min] | LC retention time [3] [min] | LC retention time [4] [min] | LC retention time [5] [min] | LC retention time [6] [min] | LC retention time [7] [min] | LC retention time [8] [min] | LC retention time [9] [min] | LC retention time [10] [min] | LC retention time [11] [min] | LC retention time [12] [min] | LC retention time [13] [min] | LC retention time [14] [min] | LC retention time [15] [min] | LC retention time [16] [min] | LC retention time [17] [min] | LC retention time [18] [min]
1 | COc1ccc(C2CC(=O)c3c(O)cc(O)cc3O2)cc1O (configuration not stated) [Hesperetin] | 3.27 | 6.17 | 7.8 | 8.21 | 26.6 | 3.57 | 42.5 | 9.67 | 11.7 | 6.64 | 2.93 | 15.5 | 21.2 | 9.29 | 17.4 | 51.9 | 10.4 | –
2 | O=C(O)C1OC(Oc2c(-c3ccc(O)cc3)oc3cc(O)cc(O)c3c2=O)C(O)C(O)C1O (configuration not stated) [Kaempferol-3-O-glucuronide] | 2.39 | 4.81 | – | – | 17.4 | 2.53 | 27.4 | 8.58 | 9.51 | 5.52 | – | 13.7 | 15.2 | 8.79 | 10.5 | – | – | 8.37
3 | Oc1cc(O)c2c(c1)OC1(c3ccc(O)c(O)c3)Oc3cc(O)c4c(c3C2C1O)OC(c1ccc(O)c(O)c1)C(O)C4 (configuration not stated) [Procyanidin A2] | 2.53 | 4.38 | – | – | 16 | 2.41 | 24.4 | 8.12 | 9.38 | 4.3 | – | 13.1 | – | – | 9.7 | – | – | 8.05
4 | O=c1oc2cc(O)ccc2c2ccccc12 [Urolithin B] | 3.47 | 6.54 | – | – | – | 3.72 | 44.4 | 9.78 | 12.2 | 7.19 | – | 16 | 22.6 | – | 18.8 | – | – | –
5 | O=C(O)CCc1ccc(O)cc1 [Phloretic acid] | 2.32 | 3.41 | – | – | 11.7 | 2.19 | 19.9 | 5.01 | 9.17 | 4.09 | 2.09 | 10.4 | 6.46 | 6.26 | 7.93 | 26 | – | 6.75
6 | O=C(O)Cc1ccc(O)cc1 [4-Hydroxyphenylacetic acid] | 2.71 | 2.53 | 4.61 | 4.34 | 11.9 | 1.15 | 14.7 | 3.36 | 8.37 | 3.26 | 1.76 | 7.43 | 5.41 | – | 6.13 | 20.4 | – | –
7 | O=c1cc(-c2ccc(O)cc2)oc2cc(OC3OC(CO)C(O)C(O)C3O)cc(O)c12 (configuration not stated) [Apigenin 7-O-glucoside] | 2.89 | 4.87 | 6.07 | 6.23 | 17.9 | 2.6 | 27.6 | 9.12 | 9.6 | 5.5 | – | 13.5 | 14.3 | – | 10.7 | – | 7.96 | –
8 | O=C(O)CCc1ccc(O)c(O)c1 [Dihydrocaffeic acid] | 2.4 | 2.6 | – | – | 14.6 | 2.6 | 14.2 | 3.46 | 8.3 | 3.33 | 1.69 | 8.08 | 5.6 | 2.11 | 6.04 | 20.1 | – | 5.05
9 | COc1cc(C=CC(=O)CC(=O)C=Cc2ccc(O)c(OC)c2)ccc1O [Curcumin] | 3.75 | 7.99 | – | – | 37.7 | 3.84 | 48.7 | 10.1 | 13.6 | 8.13 | – | 18.2 | 13 | – | 22.9 | – | – | –
10 | COc1ccc(C(=O)O)cc1OC [Veratric acid] | 2.4 | 4.19 | – | – | – | – | 24.9 | 6.87 | 9.65 | 4.84 | – | 12 | – | – | 9.51 | 33 | – | –
11 | O=c1ccc2c(O)c3ccoc3cc2o1 [Bergaptol] | 3.08 | 5.42 | – | – | 21.6 | 3.25 | 37.6 | 9.43 | 11 | 6.04 | – | 14.7 | 17.9 | – | 13.9 | – | – | –
12 | O=S(=O)(O)Oc1c(O)cccc1O [Pyrogallol 2-O-sulfate] | 2.2 | 1.4 | – | – | – | 1.49 | 18.4 | 1.61 | 6.13 | 1.76 | – | – | 7.61 | 1.34 | 3.99 | – | – | 2.36
